Reference: article PMC6199744, “Development of Chemical Proteomics for the Folateome and Analysis of the Kinetoplastid Folateome” (ACS Infectious Diseases, 2018)
Like-named read-outs stand apart in the source and are kept apart here.

Experiments:
Assay type in all cases: binding
[1] = biological target: T1, HeLa cell extract proteins (Homo sapiens, UniProt Q02218)
T1 construct: endogenous in cells; host or cells: HeLa cell extract
T1 sequence (Q02218 41-1023): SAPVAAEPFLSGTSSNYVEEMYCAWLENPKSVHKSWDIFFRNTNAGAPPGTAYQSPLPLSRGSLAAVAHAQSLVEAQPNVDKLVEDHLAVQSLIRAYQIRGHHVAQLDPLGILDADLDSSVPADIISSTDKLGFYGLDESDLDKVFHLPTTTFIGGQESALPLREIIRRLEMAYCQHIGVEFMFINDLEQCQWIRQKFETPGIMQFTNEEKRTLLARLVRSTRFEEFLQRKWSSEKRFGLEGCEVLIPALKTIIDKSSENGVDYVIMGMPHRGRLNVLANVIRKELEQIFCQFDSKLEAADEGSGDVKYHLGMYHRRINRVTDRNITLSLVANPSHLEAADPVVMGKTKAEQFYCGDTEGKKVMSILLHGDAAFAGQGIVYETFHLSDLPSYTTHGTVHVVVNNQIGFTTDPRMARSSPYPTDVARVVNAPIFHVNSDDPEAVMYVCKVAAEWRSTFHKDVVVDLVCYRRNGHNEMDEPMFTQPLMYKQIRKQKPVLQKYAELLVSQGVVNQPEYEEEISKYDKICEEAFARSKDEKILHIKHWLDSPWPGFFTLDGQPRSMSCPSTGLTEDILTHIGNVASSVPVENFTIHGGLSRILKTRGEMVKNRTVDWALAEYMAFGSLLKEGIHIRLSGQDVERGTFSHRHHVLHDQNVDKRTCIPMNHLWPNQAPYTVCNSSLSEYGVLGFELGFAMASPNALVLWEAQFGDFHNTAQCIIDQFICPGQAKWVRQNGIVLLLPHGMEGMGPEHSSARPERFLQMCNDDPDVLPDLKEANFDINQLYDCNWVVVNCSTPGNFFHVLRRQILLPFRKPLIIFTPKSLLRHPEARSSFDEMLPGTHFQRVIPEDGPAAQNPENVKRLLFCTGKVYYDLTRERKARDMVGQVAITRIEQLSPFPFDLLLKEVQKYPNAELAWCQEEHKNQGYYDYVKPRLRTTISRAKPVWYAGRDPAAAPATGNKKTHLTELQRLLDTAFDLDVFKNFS

[2] = biological target: T2, HeLa cell extract proteins (Homo sapiens, UniProt P24752)
T2 construct: endogenous in cells; host or cells: HeLa cell extract
T2 sequence (P24752 34-427): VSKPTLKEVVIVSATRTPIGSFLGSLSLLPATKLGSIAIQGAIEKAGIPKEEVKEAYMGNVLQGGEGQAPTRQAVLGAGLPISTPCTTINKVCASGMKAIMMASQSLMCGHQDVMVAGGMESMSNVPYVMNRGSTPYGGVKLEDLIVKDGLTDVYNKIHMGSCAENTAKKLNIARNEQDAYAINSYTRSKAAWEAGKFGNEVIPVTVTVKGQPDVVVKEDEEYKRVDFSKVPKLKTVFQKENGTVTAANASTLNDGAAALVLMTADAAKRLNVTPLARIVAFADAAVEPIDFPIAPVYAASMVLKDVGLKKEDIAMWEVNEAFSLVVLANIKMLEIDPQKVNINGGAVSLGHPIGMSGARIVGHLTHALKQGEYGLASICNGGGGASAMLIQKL

[3] = biological target: T3, HeLa cell extract proteins (Homo sapiens, UniProt O00303)
T3 construct: endogenous in cells; host or cells: HeLa cell extract
T3 sequence (O00303 whole entry): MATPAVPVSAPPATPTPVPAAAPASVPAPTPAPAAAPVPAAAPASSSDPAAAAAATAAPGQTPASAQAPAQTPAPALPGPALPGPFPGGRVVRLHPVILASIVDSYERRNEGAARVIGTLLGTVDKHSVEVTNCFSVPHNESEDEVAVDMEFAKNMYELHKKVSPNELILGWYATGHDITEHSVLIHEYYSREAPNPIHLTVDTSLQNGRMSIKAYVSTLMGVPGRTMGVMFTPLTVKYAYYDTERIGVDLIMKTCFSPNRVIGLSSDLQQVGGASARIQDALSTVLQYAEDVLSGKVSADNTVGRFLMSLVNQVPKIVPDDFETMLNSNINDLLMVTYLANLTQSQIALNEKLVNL

[4] = biological target: T4, HeLa cell extract proteins (Homo sapiens, UniProt P50416)
T4 construct: endogenous in cells; host or cells: HeLa cell extract
T4 sequence (P50416 1-773): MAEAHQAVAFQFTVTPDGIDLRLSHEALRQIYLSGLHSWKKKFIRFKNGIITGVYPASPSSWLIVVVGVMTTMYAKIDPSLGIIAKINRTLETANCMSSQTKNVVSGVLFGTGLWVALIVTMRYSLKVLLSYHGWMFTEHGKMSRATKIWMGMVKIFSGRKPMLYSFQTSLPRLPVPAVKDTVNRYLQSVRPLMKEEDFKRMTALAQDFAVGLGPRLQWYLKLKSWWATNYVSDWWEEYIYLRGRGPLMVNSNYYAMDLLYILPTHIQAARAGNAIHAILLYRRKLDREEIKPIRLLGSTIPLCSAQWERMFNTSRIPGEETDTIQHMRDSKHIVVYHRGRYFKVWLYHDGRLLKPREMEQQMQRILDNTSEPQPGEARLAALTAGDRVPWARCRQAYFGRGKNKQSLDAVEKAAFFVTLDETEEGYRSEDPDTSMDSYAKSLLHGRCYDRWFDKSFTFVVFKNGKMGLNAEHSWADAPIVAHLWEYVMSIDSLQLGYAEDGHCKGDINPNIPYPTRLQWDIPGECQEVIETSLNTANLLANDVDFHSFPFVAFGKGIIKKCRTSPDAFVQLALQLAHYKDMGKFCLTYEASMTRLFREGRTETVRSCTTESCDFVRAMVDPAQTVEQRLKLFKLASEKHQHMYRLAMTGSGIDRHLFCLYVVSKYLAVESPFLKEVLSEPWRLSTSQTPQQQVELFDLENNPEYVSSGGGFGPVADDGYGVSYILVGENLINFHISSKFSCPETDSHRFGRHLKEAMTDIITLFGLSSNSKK

[5] = biological target: T5, HeLa cell extract proteins (Homo sapiens, UniProt Q99832)
T5 construct: endogenous in cells; host or cells: HeLa cell extract
T5 sequence (Q99832 1-543): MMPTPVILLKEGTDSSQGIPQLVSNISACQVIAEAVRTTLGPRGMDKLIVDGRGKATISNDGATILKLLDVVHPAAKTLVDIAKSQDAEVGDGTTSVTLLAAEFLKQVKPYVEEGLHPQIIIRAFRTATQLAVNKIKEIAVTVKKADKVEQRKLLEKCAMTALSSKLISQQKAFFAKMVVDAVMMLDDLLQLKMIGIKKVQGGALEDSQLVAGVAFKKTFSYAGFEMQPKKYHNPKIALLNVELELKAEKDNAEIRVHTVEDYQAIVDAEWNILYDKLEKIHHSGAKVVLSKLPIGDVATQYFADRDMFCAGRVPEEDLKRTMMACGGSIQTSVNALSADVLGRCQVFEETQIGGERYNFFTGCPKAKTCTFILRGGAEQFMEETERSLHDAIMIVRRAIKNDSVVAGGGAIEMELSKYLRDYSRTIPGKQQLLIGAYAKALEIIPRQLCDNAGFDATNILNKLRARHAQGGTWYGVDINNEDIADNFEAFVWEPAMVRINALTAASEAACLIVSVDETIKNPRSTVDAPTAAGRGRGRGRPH

[6] = biological target: T6, HeLa cell extract proteins (Homo sapiens, UniProt Q9UII2)
T6 construct: endogenous in cells; host or cells: HeLa cell extract
T6 sequence (Q9UII2 26-106): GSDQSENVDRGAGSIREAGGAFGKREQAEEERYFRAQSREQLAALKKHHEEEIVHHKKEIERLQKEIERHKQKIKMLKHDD

SMILES | fold changes relative to vehicle control ([1]; HeLa, captured protein OGDH) | fold changes relative to vehicle control ([2]; protein ACAT1, HeLa) | fold changes relative to vehicle control ([3]; protein EIF3F, HeLa) | fold changes relative to vehicle control ([4]; HeLa, protein CPT1A) | fold changes relative to vehicle control ([5]; HeLa, protein CCT7) | fold changes relative to vehicle control ([6]; HeLa, protein ATPIF1) | fold changes relative to vehicle control [1] | fold changes relative to vehicle control [2] | fold changes relative to vehicle control [3] | fold changes relative to vehicle control [4] | fold changes relative to vehicle control [5] | fold changes relative to vehicle control [6] | fold changes relative to vehicle control ([1]; protein OGDH, HeLa) | fold changes relative to vehicle control ([3]; HeLa, protein EIF3F) | fold changes relative to vehicle control ([4]; captured protein CPT1A, HeLa) | fold changes relative to vehicle control ([5]; protein CCT7, HeLa) | fold changes relative to vehicle control ([6]; protein ATPIF1, HeLa)
Nc1nc2c(c(=O)[nH]1)N(C=O)C(CNc1ccc(C(=O)N[C@@H](CCC(=O)O)C(=O)O)cc1)CN2 (stereo partly drawn) [LEU, leucovorin] | 1.13 | 1 | 0.95 | 0.88 | 1.01 | 1 |  |  |  |  |  |  |  |  |  |  | 
Nc1nc2[nH]cc(CCc3ccc(C(=O)N[C@@H](CCC(=O)O)C(=O)O)cc3)c2c(=O)[nH]1 [PTX, pemetrexed] |  |  |  |  |  |  | 0.9 | 0.9 | 0.92 | 0.84 | 1.01 | 1.84 |  |  |  |  | 
CCCCCCOc1ccc(Cc2cnc(N)nc2N)cc1 [compound 1] |  | 1.22 |  |  |  |  |  |  |  |  |  |  | 1.05 | 0.93 | 0.9 | 1.08 | 0.97
CCCCCCOc1cccc(Cc2cnc(N)nc2N)c1 [compound 2] |  | 1.75 |  |  |  |  |  |  |  |  |  |  | 1.26 | 1.24 | 1.04 | 1.62 | 1.32
Nc1nc2cccc(-c3ccccc3)c2n1Cc1ccc(Cl)c(Cl)c1 [compound 3] |  | 0.84 |  |  |  |  |  |  |  |  |  |  | 1.03 | 1.05 | 0.95 | 0.98 | 0.91
NCCOCCOCC(=O)Nc1nc2ncc(CNc3ccc(C(=O)NC(CCC(=O)O)C(=O)O)cc3)nc2c(=O)[nH]1 (stereo not drawn) [compound 6] | 1.02 | 1.31 | 0.96 | 1.01 | 1.2 | 1.91 |  |  |  |  |  |  |  |  |  |  | 
NCCCNc1ccc(C(=O)NC(CCC(=O)O)C(=O)O)cc1 (stereo not drawn) [compound 7] | 1.04 | 0.87 | 1.01 | 0.99 | 1.11 | 1.41 |  |  |  |  |  |  |  |  |  |  | 
